# In a melting point compilation (Tetko et al.; mined from patent text by program, amines drawn as free bases though some values may be those of a salt):
row,melting point,SMILES
1,86 to 89 °C,CCCc1c(OCCCCCOc2c(C(C)=O)ccc(OCC(=O)O)c2CCC)ccc(C(C)=O)c1O
2,138 to 141 °C,N#Cc1ccc2oc(-c3ccccc3)cc2c1
3,215 °C,NC(=O)c1sc2nc(N3CCC(NCC(O)c4cccc(F)c4)CC3)cc(C(F)(F)F)c2c1N (configuration not stated)
4,76 to 77 °C,CCCCCCCCCCCCS(=O)(=O)N1CCCSC1=C(Cl)[N+](=O)[O-]
5,43 to 46 °C,CCCc1ccc(OC)c2c(C)c(C(=O)OCC)oc12
6,> 330 °C,O=c1c2c(n(-c3ccccc3)c3c1CCc1cc(O)ccc1-3)NCCC2
7,135 to 137 °C,Cc1cc(-n2ccc(OCCCO)cc2=O)sc1C(=O)NCc1cccc(F)c1
8,90 to 94 °C,CCCCCCCCOc1cccc2c1C(=O)c1cccc(OCCCCCCCC)c1C2=O
9,140 °C,N#Cc1ccc(-c2cnco2)cc1
10,204 to 206 °C,CC(=O)OC(C)c1ccc(Cl)c2nc3n(c12)CCCN3c1ccc(Cl)cc1Cl (configuration not stated)
11,238 °C,Cn1c2c(n(C)c1=O)CC(=NNC(=N)N)C=C2
12,147 to 149 °C,Cc1cn2c(n1)C(=O)CCC2
13,53 °C,C=CC1(CO)OC(OC2C(COCc3ccccc3)OC(OC)C(OCc3ccccc3)C2OCc2ccccc2)C(OC(C)=O)C(OC)C1O (configuration not stated)
14,227 to 229 °C,Cn1cc2c(OCC3COC(Cn4ccnc4)(c4ccc(Cl)cc4Cl)O3)cc(-c3ccccc3)nc2n1 (configuration not stated)
15,135 to 136 °C,CC(OCc1ccc(-c2ccc(Cl)cc2)cc1)(C(=O)O)C(F)(F)F (configuration not stated)
16,105 to 107 °C,CCOc1cc([C@@H](CC(=O)N(C)C)N2Cc3cccc(NC(=O)N(C)C)c3C2=O)ccc1OC
17,154 °C,Cc1ccccc1C(=O)COc1c(C(=O)c2ccc(Cl)c(C)c2Cl)c(C)nn1C
18,97 to 100 °C,CCOC(=O)C1=C(COCc2nnnn2CC(N)=O)NC(C)=C(C(=O)OC)C1c1ccccc1Cl (configuration not stated)
19,218 to 220 °C,N#Cc1ccc(N(Cc2ccc(O)c(Br)c2)n2cnnc2)cc1-c1ccccc1
20,92 to 94 °C,N#CCC1CC(=O)N(c2ccc(Cl)cc2)C1 (configuration not stated)
21,196 to 202 °C,COc1ccc(-c2csc(C(=O)Nc3cc4ccccc4cn3)n2)cc1OC
22,122 °C,O=C(Cc1ccccc1O)N1CCOCC1
23,143 to 144 °C,COc1cc(Nc2nccc(-c3ccc(CN)cc3)n2)cc(OC)c1OC
24,220 to 223 °C,CCOC(=O)c1cc(-n2c(=O)cc(C)[nH]c2=O)ccc1Cl

row,melting point,SMILES
1,118 to 119 °C,Cc1cc([N+](=O)[O-])ccc1N=C1SCC2(CCCC2)N1C1CCCC1
2,101 to 102 °C,O=[N+]([O-])c1ccc(Oc2ccc(Cl)c(Cl)c2)nc1
3,244 to 245 °C,O=C(O)Cc1ccc2oc3ncccc3c(=O)c2c1
4,120 °C,CCNc1cc(Cl)nc(C#N)c1[N+](=O)[O-]
5,113 to 114 °C,COc1ccccc1CN1CCC(=O)C(C2c3ccccc3C=Cc3ccccc32)C1 (configuration not stated)
6,166 to 168 °C,CC(C)(C)c1ccc(CN2CCN(Cc3ccc(NS(C)(=O)=O)cc3)C2=O)cc1
7,191 to 195 °C,Cc1nc(-c2ccc(O)cc2)cc(-c2c(Cl)ccc(Cl)c2Cl)c1C#N
8,98 to 101 °C,CCOC(=O)C1=C(C)N(C(=O)c2ccccc2)C(C)=C(C(=O)OCC)C1c1cccc([N+](=O)[O-])c1
9,94 °C,COC[C@H]1CN(c2noc3cc(OS(=O)(=O)C(F)(F)F)ccc23)C(=O)O1
10,56 to 58 °C,COc1ccc(CN(CCN(C)CCN=C(NC#N)NCCSCc2csc(NC(=N)N)n2)c2ccccn2)cc1
11,72 to 73 °C,CC(C)n1nc(Br)c([N+](=O)[O-])c1Br
12,105 to 108 °C,O=C1C(=O)N(c2cccc3ccccc23)C(=O)N1c1ccccc1
13,313 °C,Cc1ccccc1-c1nc(N)ncc1-c1ccc(=O)[nH]n1
14,120 °C,Cc1sc(C=O)cc1NC(=O)OCc1ccccc1
15,126 to 128 °C,OCCCN1CCN(C(c2ccccc2)c2ccccc2)CC1
16,110 to 112 °C,CCCc1cc(Br)c2oc(Cc3ccc(OC)cc3)c(C)c2c1O
17,154 to 156 °C,CCC(CC)Nc1cc(C)nc(Oc2c(C)cc(C)cc2C)c1NC(C)=O
18,106 to 110 °C,COc1nc(OC)nc(SC(C(=O)O)C2CCCC2)n1 (configuration not stated)
19,217 to 221 °C,CS(=O)c1cccc(S(N)(=O)=O)c1 (configuration not stated)
20,111 to 112 °C,CCOC(=O)c1cc2cc(Cl)cc([N+](=O)[O-])c2o1
21,232 to 233 °C,Cc1[nH]cnc1CSCCNc1nnc(Cc2cccnc2)c(=O)[nH]1
22,62.2 °C,CC(C)[Si](OCCOc1cc(CO)ccc1Br)(C(C)C)C(C)C
23,41 to 43 °C,CCCCCCCCCCCCCCC(=O)C(=O)N[C@@H](CCCC)COCC(=O)OCC
24,121 °C,O=C(c1ncc[nH]1)C1CCN(Cc2ccccc2)CC1

row,melting point,SMILES
1,197 to 198 °C,CC(=O)Nc1ccc(C=C2C(=S)c3cc(C)ccc3OC2c2ccccc2)cc1 (configuration not stated)
2,202 to 204 °C,Cn1cc(C2=C(c3cn(CCCOS(C)(=O)=O)c4ccccc34)C(=O)NC2=O)c2ccccc21
3,133 to 134 °C,Cc1n[nH]c(C)c1Cc1cc(Cl)cc(Cl)c1
4,184 to 185 °C,CC(=O)Nc1ccc(C(O)CO)cn1 (configuration not stated)
5,41 to 42 °C,C=CCN(CC=C)C(=O)n1cnc(S(=O)(=O)CCC)n1
6,134 °C,O=C1C(O)OC=CN1Cc1ccccc1 (configuration not stated)
7,92 to 93 °C,CCOCc1cc2c(s1)CCCc1cc(=O)n(-c3ccc(C)cc3)nc1-2
8,196 to 197 °C,Fc1ccc2c(C3=CCC4(CC3)OCCO4)c[nH]c2c1
9,140 to 143 °C,O=C1c2ccccc2CCC1CNCC(O)c1cccc(O)c1 (configuration not stated)
10,169 to 170 °C,CCCOC(Cc1ccc(OCc2nc(C(C)(C)C)oc2C)c2ccccc12)C(=O)O (configuration not stated)
11,214 to 215 °C,CN(c1cccc2cc(-c3nc(CC(=O)O)cs3)[nH]c12)S(=O)(=O)c1cccs1
12,131 to 134 °C,CCN1c2ncccc2C(=O)Nc2c(C)cc(N3CCC(O)C3)nc21 (configuration not stated)
13,251 to 252 °C,CC(C)(C)CN1C(=O)[C@@H](CC(=O)NCc2nnn[nH]2)O[C@H](c2ccccc2Cl)c2cc(Cl)ccc21 (relative stereo)
14,> 300 °C,O=c1cc(-c2cncnc2)oc2c(O)c(O)ccc12
15,68 to 70 °C,CN(CC(O)c1cccc(OCc2ccccc2)c1)C(=O)c1cnc(N(C)C)nc1-c1ccc(Cl)c(Cl)c1 (configuration not stated)
16,160 °C,O=C(c1ccc(CN2CCOCC2)cc1)c1cccc2nc(N[C@@H]3CCc4ccccc43)ccc12
17,209 to 210 °C,Cc1nn(C)c(-n2ccc3cc(Cl)cnc32)c1/C=C/C(=O)NS(=O)(=O)NCC1CC1
18,104 to 106 °C,O=c1oc(-c2cccc(OCCc3ccccc3)c2)cc(O)c1SCCc1ccccc1
19,128 to 130 °C,CCOc1ccc(OC)cc1C(N)=O
20,177 °C,CCOC(=O)c1nc(-c2ccc(F)cc2)[nH]c1N=NN(C)C
21,238 °C,Cc1cc(-c2ccc(Cl)c(Cl)c2)nc(-c2cccc(-c3ccc(S(N)(=O)=O)s3)c2)n1
22,88 to 90 °C,O=C(CCCNC(=O)C(=O)c1cn2c3c(cccc13)CCC2)NOCc1ccccc1
23,209 to 210 °C,Cc1ccc2c(c1)sc1ncc(C(O)CCc3ccccc3)n12 (configuration not stated)
24,57 °C,CCN(CC)C(=O)C(C)Cc1nc(-c2ccccc2)cc2ccccc12 (configuration not stated)

row,melting point,SMILES
1,72 to 73 °C,CCOC(=O)CNc1c(C(C)C)cc(C(O)(C(F)(F)F)C(F)(F)F)cc1C(C)C
2,71 to 72 °C,CCCCCCCCCCCOc1cccc(CCCC(N)(CO)CO)c1
3,243 to 246 °C,Oc1ccc2c(c1)COc1c-2cc2ccc(O)cc2c1-c1cccc(Cl)c1
4,126 to 128 °C,COc1ccc(-c2noc3cc(OC)ccc23)c(C)c1
5,74 to 76 °C,CC(=O)CN1C(=O)COc2ccccc21
6,203 to 204 °C,CCn1c(=O)ccc2cnc(Nc3ccccc3)nc21
7,198 to 199 °C,Nc1cc(Br)c(Br)cc1[N+](=O)[O-]
8,86 to 87 °C,O=[N+]([O-])c1cc(C(F)(F)F)c(Cl)c([N+](=O)[O-])c1NC1CC1
9,114 °C,COC(=O)c1cc(N)cc(C(F)(F)F)n1
10,177 to 178 °C,N#Cc1cccc(COc2ncc(F)c(NC(=O)NCc3ccccc3F)n2)c1
11,148 to 150 °C,NC(=O)N1CCC(c2nn(-c3ccccc3)c3cc(Cl)ccc23)CC1
12,100 °C,COc1cc(OC)c(C(C)=O)c(O)c1CCC(C)C
13,140 to 142 °C,Cn1c(C(F)(F)F)cc(=O)n(-c2cc(OC(=O)OCC(Cl)(Cl)Cl)c(Cl)cc2F)c1=O
14,245 to 249 °C,CNC(=O)c1cc(NC(=O)c2ccc(C)c(Nc3nccc(-c4cccnc4)n3)c2)cc(C(F)(F)F)c1
15,112 to 113 °C,CNc1ccc(C)nc1N
16,151 to 153 °C,O=c1c(CCl)csc2ccc3ccccc3c12
17,69.4 °C,O=C1N(c2cc(Cl)cc(Cl)c2)C(=O)C2(Cc3ccc(Br)cc3)CCCN12 (configuration not stated)
18,158 to 159 °C,O=C(O)CCCCCc1oc(-n2cnc3ccccc32)nc1-c1ccc(Cl)cc1
19,173 to 180 °C,CC(C)n1cc(C(=O)NCc2ccc(Cl)cc2)c(=O)c2cc(I)sc21
20,139 to 140 °C,COC(=O)c1cccc(-c2cc(-c3ccc(C(F)(F)F)cc3)on2)c1
21,149 °C,CS(=O)(=O)c1ccccc1C(N)=O
22,175 to 178 °C,Cc1c(-c2ccccc2)c(N2CCC(N(C)C)C2)c2oc(C(C)(C)CO)nc2c1C#N (configuration not stated)
23,131 to 133 °C,O=c1ccoc2cc(OCCn3ccnc3)ccc12

row,SMILES,melting point
1,CC1(CF)C(=O)N(c2ccc(C#N)c(C(F)(F)F)c2)C(=O)N1CCF (configuration not stated),137 to 138 °C
2,N#CC(CCN1CCC(c2ccccc2)CC1)(c1ccccc1)c1ccccc1,88 to 89.5 °C
3,OCC12CCCN(CC1)C2 (configuration not stated),44 to 47 °C
4,CC(c1c[nH]cn1)c1cccc(C#N)c1O (configuration not stated),172 °C
5,CNC(=O)c1ccc(N2CCNCC2)cc1,154 to 156 °C
6,CCC(O)(C#Cc1ncn2c1CN(C)C(=O)c1cc(F)ccc1-2)CC,135 to 136 °C
7,CC1=NCC2CNC(c3ccccc3F)c3cc(Cl)ccc3N12 (configuration not stated),108 to 110 °C
